The target of assay [1] is T1, MadB (Shewanella oneidensis, UniProt Q8E989, S54A).
T1 construct: gene yiiD
The assay is described as follows: malonyl-CoA decarboxylase assay, HPLC. It is filed as biochemical. The settings on record: 4 mM malonyl-CoA, 0.1 M Tris pH 7, 0.2 M NaCl, 37 °C.

Assay [2] concerns the target T2, MadB (Shewanella oneidensis, UniProt Q8E989).
T2 construct: gene yiiD
T2 sequence (Q8E989 1-145): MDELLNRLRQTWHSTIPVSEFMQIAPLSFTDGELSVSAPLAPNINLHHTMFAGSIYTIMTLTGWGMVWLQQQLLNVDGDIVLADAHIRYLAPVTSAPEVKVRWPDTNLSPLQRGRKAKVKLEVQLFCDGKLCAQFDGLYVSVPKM
The assay is described as follows: malonyl-CoA decarboxylase assay, HPLC. It counts as biochemical. The settings on record: 0.1 M Tris pH 7, 0.2 M NaCl, 37 °C; given for the Mad proteins collectively.

Another assay deals with T3, MadA (Escherichia coli, UniProt P0ADQ2, M17A).
T3 construct: gene fabY; full-length GNAT-hot dog protein, dimer, pET28a His-tag, M17A to remove second start site; expressed in E. coli BL21(DE3)
Nature of the assay: malonyl-CoA decarboxylase assay, HPLC. The settings on record: 0.1 M Tris pH 7, 0.2 M NaCl, 37 °C; given for the Mad proteins collectively. It is filed as biochemical.

The target of the next assay is T4, MadA^C (Escherichia coli, UniProt P0ADQ2).
T4 construct: gene fabY; C-terminal hot dog domain, residues 171-329, His6-tag cleaved by thrombin, dimer; expressed in E. coli BL21(DE3)
Nature of the assay: malonyl-CoA decarboxylase assay, HPLC. It is filed as biochemical. The settings on record: 0.1 M Tris pH 7, 0.2 M NaCl, 37 °C; given for the Mad proteins collectively.

Assay [3] deals with T5, MadB (Shewanella oneidensis, UniProt Q8E989, D79A).
T5 construct: gene yiiD
Nature of the assay: malonyl-CoA decarboxylase assay, HPLC. It is filed as biochemical. The settings on record: 4 mM malonyl-CoA, 0.1 M Tris pH 7, 0.2 M NaCl, 37 °C.

A further assay has as its target T6, GlmU (Escherichia coli, UniProt P0ACC7).
T6 construct: full-length in pET28a, His-tag kept; expressed in E. coli BL21(DE3)
Nature of the assay: surface plasmon resonance, immobilised His-tagged GlmU, […] equilibrium affinity. It counts as binding. The settings on record: read-out: equilibrium dissociation constant. A general note: SPR reads the build-up and loss of mass on a sensor chip optically.

T3 sequence (P0ADQ2 whole entry M17A): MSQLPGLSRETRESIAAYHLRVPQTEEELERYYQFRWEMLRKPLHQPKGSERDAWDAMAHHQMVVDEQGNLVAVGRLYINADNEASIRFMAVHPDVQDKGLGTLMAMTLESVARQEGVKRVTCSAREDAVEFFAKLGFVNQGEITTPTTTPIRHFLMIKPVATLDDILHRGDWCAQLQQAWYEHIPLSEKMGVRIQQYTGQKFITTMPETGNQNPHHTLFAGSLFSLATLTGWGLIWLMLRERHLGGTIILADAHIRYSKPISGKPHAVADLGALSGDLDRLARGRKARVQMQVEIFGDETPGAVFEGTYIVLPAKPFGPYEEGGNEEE
T4 sequence (P0ADQ2 171-329): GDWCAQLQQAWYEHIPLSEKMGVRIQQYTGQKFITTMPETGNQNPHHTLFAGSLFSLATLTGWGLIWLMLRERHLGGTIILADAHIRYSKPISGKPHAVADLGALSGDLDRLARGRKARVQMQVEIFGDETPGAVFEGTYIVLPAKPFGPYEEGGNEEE
T6 sequence (P0ACC7 whole entry): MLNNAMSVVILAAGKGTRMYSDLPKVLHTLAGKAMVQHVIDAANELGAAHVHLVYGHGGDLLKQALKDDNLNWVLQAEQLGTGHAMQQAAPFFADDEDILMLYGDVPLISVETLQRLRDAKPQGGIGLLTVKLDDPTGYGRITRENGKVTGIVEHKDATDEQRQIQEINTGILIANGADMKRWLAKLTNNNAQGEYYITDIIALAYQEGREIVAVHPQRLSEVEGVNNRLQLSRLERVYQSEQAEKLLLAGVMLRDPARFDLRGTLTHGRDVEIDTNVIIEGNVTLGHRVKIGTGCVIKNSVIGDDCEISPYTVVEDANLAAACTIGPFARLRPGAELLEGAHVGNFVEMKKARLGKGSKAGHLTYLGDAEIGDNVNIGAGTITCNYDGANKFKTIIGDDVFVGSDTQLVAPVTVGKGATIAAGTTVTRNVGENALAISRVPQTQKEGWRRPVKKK
T1 sequence (Q8E989 entry or part of it S54A): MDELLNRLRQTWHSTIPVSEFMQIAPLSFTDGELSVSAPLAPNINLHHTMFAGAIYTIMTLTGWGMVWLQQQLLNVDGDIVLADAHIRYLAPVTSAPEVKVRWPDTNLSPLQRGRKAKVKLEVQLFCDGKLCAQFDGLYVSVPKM
T5 sequence (Q8E989 entry or part of it D79A): as the sequence (Q8E989 entry or part of it S54A) above, with A54S, D79A counted along it

The Km is the substrate concentration at which the rate is half of its maximum. For the compound `CC(C)(COP(=O)(O)OP(=O)(O)OC[C@H]1O[C@@H](n2cnc3c(N)ncnc32)[C@H](O)[C@@H]1OP(=O)(O)O)[C@@H](O)C(=O)NCCC(=O)NCCSC(=O)CC(=O)O` [malonyl-CoA], the “malonyl-CoA decarboxylase assay, HPLC” value at MadB [1] was “The MadB(S54A) and MadB(D79A) mutants had nearly normal malonyl-CoA decarboxylase activity”; on MadB [3], “The MadB(S54A) and MadB(D79A) mutants had nearly normal malonyl-CoA decarboxylase activity”. Moreover, the Km on MadB [2], at MadA and on MadA^C was > 5 mM each time.

In the case of `CC(=O)SCCNC(=O)CCNC(=O)[C@H](O)C(C)(C)COP(=O)(O)OP(=O)(O)OC[C@H]1O[C@@H](n2cnc3c(N)ncnc32)[C@H](O)[C@@H]1OP(=O)(O)O` [acetyl-CoA], the Kd on GlmU stood at 967 ± 48.3 µM.

(Values after publication PMC8666670, “Malonyl-acyl carrier protein decarboxylase activity promotes fatty acid and cell envelope biosynthesis in Proteobacteria” (The Journal of Biological Chemistry, 2021).)
